Reference: US20230416240A1, “KAT6 TARGETING COMPOUNDS” (Prelude Therapeutics Incorporated, priority 2022, published 2023)

Biological target: T1, HiBit tagged KAT6A (Homo sapiens, UniProt Q92794)
T1 construct: host or cells: HeLa
Experiment: HiBit KAT6A Degradation Assessment
Type: cell-based
Conditions: HeLa cells with HiBit tagged KAT6A, 18 h of treatment, 9-point serial dilution
Procedure: The degradation activity of compounds was evaluated by measuring levels of KAT6A protein using the HiBiT system. These studies were conducted in HeLa cells with a HiBit tagged KAT6A. Cells were maintained in a 37° C. incubator at 5% CO2 in EMEM (ATCC, 30-2003) supplemented with 10% v/v FBS (Gibco, 26140-079) and 1% penicillin streptomycin. Cells were seeded in 384-well plates at a density of 2,000 cells/well. Compounds dissolved in DMSO were added in 9-point serial dilution. After 18 h of treatment, KAT6A levels were measured using the Nano-Glo® HiBiT Lytic Detection System (Promega catalog number N3030) per manufacturer's instructions. Luminescence signal was measured with a multimode plate reader (Envision 2105, Perkin Elmer). Luminescence values were normalized to background and DMSO controls to quantify KAT6A for each condition. Results were analyzed, and DC50 and Dmax values obtained using a four-parameter logistic curve fit.

T1 sequence (Q92794 whole entry): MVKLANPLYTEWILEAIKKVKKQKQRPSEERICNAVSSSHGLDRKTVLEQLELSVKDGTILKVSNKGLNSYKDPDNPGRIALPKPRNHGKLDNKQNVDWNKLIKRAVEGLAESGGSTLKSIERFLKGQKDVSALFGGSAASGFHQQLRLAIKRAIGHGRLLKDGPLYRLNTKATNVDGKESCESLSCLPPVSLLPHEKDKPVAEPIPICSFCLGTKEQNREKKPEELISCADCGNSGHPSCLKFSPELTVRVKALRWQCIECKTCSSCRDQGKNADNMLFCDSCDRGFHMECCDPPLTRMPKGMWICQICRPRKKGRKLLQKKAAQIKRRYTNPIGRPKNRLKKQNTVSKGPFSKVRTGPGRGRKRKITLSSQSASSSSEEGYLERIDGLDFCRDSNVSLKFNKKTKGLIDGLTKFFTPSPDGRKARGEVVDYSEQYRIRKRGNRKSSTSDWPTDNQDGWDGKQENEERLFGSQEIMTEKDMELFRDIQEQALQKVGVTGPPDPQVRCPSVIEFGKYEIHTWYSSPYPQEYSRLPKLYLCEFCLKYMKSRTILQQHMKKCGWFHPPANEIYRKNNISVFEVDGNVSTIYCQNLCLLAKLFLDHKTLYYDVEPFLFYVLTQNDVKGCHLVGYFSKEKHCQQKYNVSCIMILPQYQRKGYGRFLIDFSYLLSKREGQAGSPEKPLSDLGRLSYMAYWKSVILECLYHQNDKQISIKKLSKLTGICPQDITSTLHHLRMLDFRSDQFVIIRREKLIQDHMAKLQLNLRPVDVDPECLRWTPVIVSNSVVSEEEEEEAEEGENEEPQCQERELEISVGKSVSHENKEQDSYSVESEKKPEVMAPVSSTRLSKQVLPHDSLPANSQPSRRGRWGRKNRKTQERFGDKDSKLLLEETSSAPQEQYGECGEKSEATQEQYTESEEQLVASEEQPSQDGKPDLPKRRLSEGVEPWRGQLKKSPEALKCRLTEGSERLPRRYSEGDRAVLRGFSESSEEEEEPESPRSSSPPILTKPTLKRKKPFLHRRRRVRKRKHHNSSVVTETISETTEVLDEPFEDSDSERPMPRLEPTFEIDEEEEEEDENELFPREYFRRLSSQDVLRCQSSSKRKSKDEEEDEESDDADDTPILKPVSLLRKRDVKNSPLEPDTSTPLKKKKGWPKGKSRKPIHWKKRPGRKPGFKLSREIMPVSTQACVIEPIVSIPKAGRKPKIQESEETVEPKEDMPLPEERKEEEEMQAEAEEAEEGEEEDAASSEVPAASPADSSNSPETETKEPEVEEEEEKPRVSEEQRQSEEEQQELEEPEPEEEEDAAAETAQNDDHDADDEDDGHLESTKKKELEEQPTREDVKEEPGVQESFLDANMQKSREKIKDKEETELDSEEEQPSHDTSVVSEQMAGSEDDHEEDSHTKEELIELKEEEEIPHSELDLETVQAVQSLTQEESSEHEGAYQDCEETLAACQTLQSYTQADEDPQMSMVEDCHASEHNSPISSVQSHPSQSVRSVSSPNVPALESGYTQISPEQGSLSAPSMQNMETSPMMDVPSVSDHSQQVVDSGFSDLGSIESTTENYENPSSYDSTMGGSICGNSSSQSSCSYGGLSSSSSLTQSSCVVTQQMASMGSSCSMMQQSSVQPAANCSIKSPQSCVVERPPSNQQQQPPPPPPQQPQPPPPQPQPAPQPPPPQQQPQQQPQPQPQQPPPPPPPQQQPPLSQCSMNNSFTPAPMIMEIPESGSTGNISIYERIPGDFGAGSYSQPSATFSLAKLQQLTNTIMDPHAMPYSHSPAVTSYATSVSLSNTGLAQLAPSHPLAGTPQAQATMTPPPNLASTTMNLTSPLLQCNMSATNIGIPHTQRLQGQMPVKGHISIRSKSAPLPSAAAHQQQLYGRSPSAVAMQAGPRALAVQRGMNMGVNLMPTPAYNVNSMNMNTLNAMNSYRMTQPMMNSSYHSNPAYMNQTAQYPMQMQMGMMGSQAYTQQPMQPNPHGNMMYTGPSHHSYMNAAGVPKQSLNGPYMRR

SMILES | DC50 | Dmax
COc1cc(Cn2cccn2)cc2onc(NS(=O)(=O)c3cccc(N4CC5(CCN(CC6(F)CCN(c7ccc8c(c7)C(=O)N(C7CCC(=O)NC7=O)C8=O)C6)CC5)C4)c3)c12 (stereo not shown) [Example 13, N-(6-((1H-Pyrazol-1-yl)methyl)-4-methoxybenzo[d]isoxazol-3-yl)-3-(7-((1-(2-(2,6-dioxopiperidin-3-yl)-1,3-dioxoisoindolin-5-yl)-3-fluoropyrrolidin-3-yl)methyl)-2,7-diazaspiro[3.5]nonan-2-yl)benzenesulfonamide] | 0.01 to 0.1 µM | 50 to 75%
COc1cc(Cn2cccn2)cc2onc(NS(=O)(=O)c3cccc(N4CCN(CC5CCN(c6cccc7c6C(=O)N(C6CCC(=O)NC6=O)C7=O)CC5)CC4)c3)c12 (stereo not shown) [Example 32, 3-[4-[[1-[2-(2,6-Dioxopiperidin-3-yl)-1,3-dioxoisoindol-4-yl]piperidin-4-yl]methyl]piperazin-1-yl]-N-[4-methoxy-6-(pyrazol-1-ylmethyl)-1,2-benzoxazol-3-yl]benzenesulfonamide] | 0.01 to 0.1 µM | 50 to 75%
COc1cc(Cn2cccn2)cc2onc(NS(=O)(=O)c3cccc(N4CC5(CCN(CC6CCN(c7ccc8c(c7)CN(C7CCC(=O)NC7=O)C8=O)C6)CC5)C4)c3)c12 (stereo not shown) [Example 33, N-(6-((1H-pyrazol-1-yl)methyl)-4-methoxybenzo[d]isoxazol-3-yl)-3-(7-((1-(2-(2,6-dioxopiperidin-3-yl)-1-oxoisoindolin-5-yl)pyrrolidin-3-yl)methyl)-2,7-diazaspirononan-2-yl)benzenesulfonamide] | < 0.01 µM | > 75%
COc1cc(Cn2cccn2)cc2onc(NS(=O)(=O)c3cccc(N4C[C@@H]5CN(C[C@@H]6CCN(c7ccc8c(c7)CN([C@H]7CCC(=O)NC7=O)C8=O)C6)C[C@H]5C4)c3)c12 [Example 40, N-(6-((1H-Pyrazol-1-yl)methyl)-4-methoxybenzo[d]isoxazol-3-yl)-3-((3aS,6aS)-5-(((S)-1-(2-((S)-2,6-dioxopiperidin-3-yl)-1-oxoisoindolin-5-yl)pyrrolidin-3-yl)methyl)hexahydropyrrolo[3,4-c]pyrrol-2(1H)-yl)benzenesulfonamide] | < 0.01 µM | > 75%
COc1c(N2CC3(CCN(C[C@H]4CCN(c5ccc6c(c5)CN(C5CCC(=O)NC5=O)C6=O)C4)CC3)C2)cccc1S(=O)(=O)Nc1noc2cc(Cn3cccn3)cc(OC)c12 (stereo partly drawn) [Example 27, N-(6-((1H-Pyrazol-1-yl)methyl)-4-methoxybenzo[d]isoxazol-3-yl)-3-(7-(((3R)-1-(2-(2,6-dioxopiperidin-3-yl)-1-oxoisoindolin-5-yl)pyrrolidin-3-yl)methyl)-2,7-diazaspiro[3.5]nonan-2-yl)-2-methoxybenzenesulfonamide] | < 0.01 µM | > 75%
COc1cc(Cn2cccn2)cc2onc(NS(=O)(=O)c3cccc(N4CC5(CCN(C6CC7(CCN(c8ccc9c(c8)C(=O)N(C8CCC(=O)NC8=O)C9=O)C7)C6)CC5)C4)c3)c12 (stereo not shown) [Example 22, N-(6-((1H-Pyrazol-1-yl)methyl)-4-methoxybenzo[d]isoxazol-3-yl)-3-(7-(6-(2-(2,6-dioxopiperidin-3-yl)-1,3-dioxoisoindolin-5-yl)-6-azaspiro[3.4]octan-2-yl)-2,7-diazaspiro[3.5]nonan-2-yl)benzenesulfonamide] | < 0.01 µM | 50 to 75%
COc1cc(Cn2cccn2)cc2onc(NS(=O)(=O)c3cccc(N4CCC(NC[C@@H]5CCN(c6ccc7c(c6)CN([C@H]6CCC(=O)NC6=O)C7=O)C5)CC4)c3)c12 [Example 36, N-(6-((1H-pyrazol-1-yl)methyl)-4-methoxybenzo[d]isoxazol-3-yl)-3-(4-((((S)-1-(2-((S)-2,6-dioxopiperidin-3-yl)-1-oxoisoindolin-5-yl)pyrrolidin-3-yl)methyl)amino)piperidin-1-yl)benzenesulfonamide] | 0.01 to 0.1 µM | > 75%
COc1cc(Cn2cccn2)cc2onc(NS(=O)(=O)c3cccc(N4CC5(CCN(C[C@@H]6CCN(c7ccc8c(c7)CN([C@H]7CCC(=O)NC7=O)C8=O)C6)CC5)C4)c3)c12 [Example 28, N-(6-((1H-Pyrazol-1-yl)methyl)-4-methoxybenzo[d]isoxazol-3-yl)-3-(7-(((S)-1-(2-((S)-2,6-dioxopiperidin-3-yl)-1-oxoisoindolin-5-yl)pyrrolidin-3-yl)methyl)-2,7-diazaspiro[3.5]nonan-2-yl)benzenesulfonamide] | < 0.01 µM | > 75%
COc1cc(Cn2cccn2)cc2onc(NS(=O)(=O)c3cccc(N4CCN(CC5CN(c6ccc7c(c6)C(=O)N(C6CCC(=O)NC6=O)C7=O)CCO5)CC4)c3)c12 (stereo not shown) [Example 18, N-(6-((1H-Pyrazol-1-yl)methyl)-4-methoxybenzo[d]isoxazol-3-yl)-3-(4-((4-(2-(2,6-dioxopiperidin-3-yl)-1,3-dioxoisoindolin-5-yl)morpholin-2-yl)methyl)piperazin-1-yl)benzenesulfonamide] |  | 25 to 50%

Further lines, results first:

DC50 | Dmax | SMILES
< 0.01 µM | 50 to 75% | COc1cc(Cn2cccn2)cc2onc(NS(=O)(=O)c3cccc(N4CCC5(CCN(C[C@@H]6CCN(c7ccc8c(c7)C(=O)N(C7CCC(=O)NC7=O)C8=O)C6)CC5)C4)c3)c12 (stereo partly drawn) [Example 15, N-(6-((1H-Pyrazol-1-yl)methyl)-4-methoxybenzo[d]isoxazol-3-yl)-3-(8-(((3S)-1-(2-(2,6-dioxopiperidin-3-yl)-1,3-dioxoisoindolin-5-yl)pyrrolidin-3-yl)methyl)-2,8-diazaspiro[4.5]decan-2-yl)benzenesulfonamide]
< 0.01 µM | 50 to 75% | COc1cc(Cn2cccn2)cc2onc(NS(=O)(=O)c3cccc(N4CC5(CCN(CC6(C)CCN(c7ccc8c(c7)C(=O)N(C7CCC(=O)NC7=O)C8=O)C6)CC5)C4)c3)c12 (stereo not shown) [Example 12, N-(6-((1H-Pyrazol-1-yl)methyl)-4-methoxybenzo[d]isoxazol-3-yl)-3-(7-((1-(2-(2,6-dioxopiperidin-3-yl)-1,3-dioxoisoindolin-5-yl)-3-methylpyrrolidin-3-yl)methyl)-2,7-diazaspiro[3.5]nonan-2-yl)benzenesulfonamide]
< 0.01 µM | 50 to 75% | COc1cc(Cn2cccn2)cc2onc(NS(=O)(=O)c3cccc(N4CC5(CCN(CC6CCN(c7ccc8c(c7)C(=O)N(C7CCC(=O)NC7=O)C8)C6)CC5)C4)c3)c12 (stereo not shown) [Example 34, N-(6-((1H-pyrazol-1-yl)methyl)-4-methoxybenzo[d]isoxazol-3-yl)-3-(7-((1-(2-(2,6-dioxopiperidin-3-yl)-3-oxoisoindolin-5-yl)pyrrolidin-3-yl)methyl)-2,7-diazaspirononan-2-yl)benzenesulfonamide]
0.01 to 0.1 µM | 50 to 75% | COc1cc(Cn2cccn2)cc2onc(NS(=O)(=O)c3cccc(N4CCN(CC5CN(c6ccc7c(c6)C(=O)N(C6CCC(=O)NC6=O)C7=O)C5)CC4)c3)c12 (stereo not shown) [Example 42, N-(6-((1H-pyrazol-1-yl)methyl)-4-methoxybenzo[d]isoxazol-3-yl)-3-(4-((1-(2-(2,6-dioxopiperidin-3-yl)-1,3-dioxoisoindolin-5-yl)azetidin-3-yl)methyl)piperazin-1-yl)benzenesulfonamide]
